Results published in patent publication US20230312587A1, “PTERIDINONE COMPOUNDS AND USES THEREOF” (Vertex Pharmaceutical Incorporated, priority 2018, published 2023).

System: Colo205-TCF/LEF-Luciferase (Luc) tumor
Test: In vivo inhibition of TCF/LEF reporter activity in Colo-205 tumors
Set-up: concentration or dose not given beside the values
Settings: TCF/LEF luciferase reporter in Colo-205 tumors, nu/nu mice, oral gavage
Procedure, shortened: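 Female nu/nu mice carried subcutaneous Colo205-TCF/LEF-luciferase tumours (200–500 mm^3), n=4 per group. Compound was given by oral gavage in 1:3:5:1 EtOH:DMSO:PEG-400:H2O at 10 ml/kg, with vehicle as control. Luciferase activity in tumour lysates (Steady-Glo) was normalised to BCA protein.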

SMILES | Percent Remaining Activity at 8 hrs after Dosing [%]
Cc1nc(C(F)(F)F)ccc1Cn1cc(CNc2nc(C)c3c(n2)N(C)[C@@H](C)C(=O)N3)cn1 [Compound 188, (S)-4,7,8-trimethyl-2-(((1-((2-methyl-6-(trifluoromethyl)pyridin-3-yl)methyl)-1H-pyrazol-4-yl)methyl)amino)-7,8-dihydropteridin-6(5H)-one] | 15
Cc1nc(NCc2cnn(Cc3ccc(C(F)(F)F)nc3)c2)nc2c1NC(=O)[C@H](C1CC1)N2C [Compound 386, (7S)-7-Cyclopropyl-4,8-dimethyl-2-(((1-((6-(trifluoromethyl)pyridin-3-yl)methyl)-1H-pyrazol-4-yl)methyl)amino)-7,8-dihydropteridin-6(5H)-one] | 19
Cc1nc(NCc2cnn(Cc3ccc(C(F)(F)F)nc3C(C)C)c2)nc2c1NC(=O)[C@H](C)N2C [Compound 388, (7S)-2-(((1-((2-isopropyl-6-(trifluoromethyl)pyridin-3-yl)methyl)-1H-pyrazol-4-yl)methyl)amino)-4,7,8-trimethyl-7,8-dihydropteridin-6(5H)-one] | 13
Cc1nc(NCc2cnn(Cc3ccc(F)nc3)c2)nc2c1NC(=O)[C@H](C(C)C)N2C [Compound 384, (7S)-2-(((1-((6-fluoropyridin-3-yl)methyl)-1H-pyrazol-4-yl)methyl)amino)-7-isopropyl-4,8-dimethyl-7,8-dihydropteridin-6(5H)-one] | 14
Cc1nc(NCc2cnn(Cc3cc(F)c(F)c(F)c3)c2)nc2c1NC(=O)[C@H](C)N2C [Compound 122, (7S)-4,7,8-trimethyl-2-(((1-(3,4,5-trifluorobenzyl)-1H-pyrazol-4-yl)methyl)amino)-7,8-dihydropteridin-6(5H)-one] | 16
Cc1nc(NCc2cnn(Cc3ccc(F)nc3)c2)nc2c1NC(=O)[C@H](C1CC1)N2C [Compound 421, (7S)-7-cyclopropyl-2-(((1-((6-fluoropyridin-3-yl)methyl)-1H-pyrazol-4-yl)methyl)amino)-4,8-dimethyl-7,8-dihydropteridin-6(511)-one] | 23
Cc1nc(NCc2cnn(Cc3ccc(C(F)(F)F)nc3[C@@H](C)O)c2)nc2c1NC(=O)[C@H](C)N2C (single isomer, unassigned) [Compound 420] | 28
Cc1nc(NCc2cnn(Cc3cc(C(F)(F)F)nn3C)c2)nc2c1NC(=O)[C@H](C(C)C)N2C [Compound 397, (7S)-7-Isopropyl-4,8-dimethyl-2-(((1-((1-methyl-3-(trifluoromethyl)-1H-pyrazol-5-yl)methyl)-1H-pyrazol-4-yl)methyl)amino)-7,8-dihydropteridin-6(5H)-one] | 23
CCN1c2nc(NCc3cnn(Cc4ccc(C(F)(F)F)nc4)c3)nc(C)c2NC(=O)[C@@H]1C [Compound 395, (7S)-8-Ethyl-4,7-dimethyl-2-(((1-((6-(trifluoromethyl)pyridin-3-yl)methyl)-1H-pyrazol-4-yl)methyl)amino)-7,8-dihydropteridin-6(5H)-one] | 19
Cc1nc(NCc2cnn(Cc3cccc(C(C)C)c3)c2)nc2c1NC(=O)[C@H](C)N2C [Compound 80, (7S)-2-(((1-(3-isopropylbenzyl)-1H-pyrazol-4-yl)methyl)amino)-4,7,8-trimethyl-7,8-dihydropteridin-6(5H)-one] | 34
Cc1cc(F)ncc1Cn1cc(CNc2nc(C)c3c(n2)N(C)[C@@H](C(C)C)C(=O)N3)cn1 [Compound 423, (7S)-2-(((1-((6-fluoro-4-methylpyridin-3-yl)methyl)-1H-pyrazol-4-yl)methyl)amino)-7-isopropyl-4,8-dimethyl-7,8-dihydropteridin-6(5H)-one] | 70
Cc1nc(N[C@H]2C[C@@H](COc3cc(F)c(F)c(F)c3)C2)nc2c1NC(=O)[C@H](C)N2C [Compound 257, (7S)-4,7,8-Trimethyl-2-((cis-3-((3,4,5-trifluorophenoxy)methyl)cyclobutyl)-amino)-7,8-dihydropteridin-6(5H)-one] | 30
Cc1nc(NCc2cnn(Cc3ccc(C(F)(F)F)nc3C(C)(C)O)c2)nc2c1NC(=O)[C@H](C)N2C [Compound 416, (7S)-2-(((1-((2-(2-hydroxypropan-2-yl)-6-(trifluoromethyl)pyridin-3-yl)methyl)-1H-pyrazol-4-yl)methyl)amino)-4,7,8-trimethyl-7,8-dihydropteridin-6(5H)-one] | 22
Cc1nc(NCc2cnn(Cc3ccc(C(F)(F)F)nc3)c2)nc2c1NC(=O)[C@H](C(C)C)N2C [Compound 383, (7S)-7-isopropyl-4,8-dimethyl-2-(((1-((6-(trifluoromethyl)pyridin-3-yl)methyl)-1H-pyrazol-4-yl)methyl)amino)-7,8-dihydropteridin-6(5H)-one] | 36
Cc1nc(NCc2cnn(Cc3ccc(Cl)nc3)c2)nc2c1NC(=O)[C@H](C(C)C)N2C [Compound 409, (7S)-2-(((1-((6-chloropyridin-3-yl)methyl)-1H-pyrazol-4-yl)methyl)amino)-7-isopropyl-4,8-dimethyl-7,8-dihydropteridin-6(5H)-one] | 27
Cc1ncc(Cn2cc(CNc3nc(C)c4c(n3)N(C)[C@@H](C(C)C)C(=O)N4)cn2)cc1F [Compound 425, (7S)-2-(((1-((5-fluoro-6-methylpyridin-3-yl)methyl)-1H-pyrazol-4-yl)methyl)amino)-7-isopropyl-4,8-dimethyl-7,8-dihydropteridin-6(5H)-one] | 29
Cc1nc(NCc2cnn(Cc3ccnc(C(F)(F)F)c3)c2)nc2c1NC(=O)[C@H](C)N2C [Compound 207, (7S)-4,7,8-trimethyl-2-(((1-((2-(trifluoromethyl)pyridin-4-yl)methyl)-1H-pyrazol-4-yl)methyl)amino)-7,8-dihydropteridin-6(5H)-one] | 18
Cc1nc(NCc2cnn(Cc3cc(C(F)(F)F)nn3C)c2)nc2c1NC(=O)[C@H](C1CC1)N2C [Compound 396, (7S)-7-Cyclopropyl-4,8-dimethyl-2-(((1-((1-methyl-3-(trifluoromethyl)-1H-pyrazol-5-yl)methyl)-1H-pyrazol-4-yl)methyl)amino)-7,8-dihydropteridin-6(5H)-one] | 23
Cc1nc(N[C@H]2CC[C@H](Oc3ccc(C(F)(F)F)nc3)C2)nc2c1NC(=O)[C@H](C)N2C (single isomer, unassigned) [Compound 377] | 33
Cc1nc(NCc2cnn(Cc3ccc(C(F)(F)F)nc3)c2)nc2c1NC(=O)[C@H](C)N2C(C)C [Compound 385, (7S)-8-isopropyl-4,7-dimethyl-2-(((1-((6-(trifluoromethyl)pyridin-3-yl)methyl)-1H-pyrazol-4-yl)methyl)amino)-7,8-dihydropteridin-6(5H)-one] | 25
CC[C@H]1C(=O)Nc2c(C)nc(NCc3cnn(Cc4ccc(C(F)(F)F)nc4)c3)nc2N1C [Compound 186, (7S)-7-ethyl-4,8-dimethyl-2-(((1-((6-(trifluoromethyl)pyridin-3-yl)methyl)-1H-pyrazol-4-yl)methyl)amino)-7,8-dihydropteridin-6(5H)-one] | 23
Cc1nc(NCc2cnn([C@@H]3C[C@@H]3c3ccc(F)cc3)c2)nc2c1NC(=O)[C@H](C)N2C [Compound 154, (7S)-2-(((1-((1R,2R)-2-(4-fluorophenyl)cyclopropyl)-1H-pyrazol-4-yl)methyl)amino)-4,7,8-trimethyl-7,8-dihydropteridin-6(5H)-one] | 24
Cc1nc(N[C@H]2C[C@H](Oc3ccc(C(F)(F)F)nc3)C2)nc2c1NC(=O)[C@H](C)N2C [Compound 324, (7S)-4,7,8-trimethyl-2-((trans-3-((6-(trifluoromethyl)pyridin-3-yl)oxy)cyclobutyl)amino)-7,8-dihydropteridin-6(5H)-one] | 16
Cc1nc(N[C@H]2C[C@@H](Sc3cc(F)c(F)c(F)c3)C2)nc2c1NC(=O)[C@H](C)N2C [Compound 332, (7S)-4,7,8-trimethyl-2-((cis-3-((3,4,5-trifluorophenyl)thio)cyclobutyl)amino)-7,8-dihydropteridin-6(5H)-one] | 51
Cc1nc(NCc2cnn(Cc3ccc(C(F)(F)F)cc3)c2)nc2c1NC(=O)[C@H](C)N2C [Compound 149, (7S)-4,7,8-trimethyl-2-(((1-(4-(trifluoromethyl)benzyl)-1H-pyrazol-4-yl)methyl)amino)-7,8-dihydropteridin-6(5H)-one] | 17
Cc1nc(NCc2cnn(Cc3ccc(C(F)(F)F)nc3)c2)nc2c1NC(=O)C1(CCC1)N2C [Compound 398, 4′,8′-dimethyl-2′-(((1-((6-(trifluoromethyl)pyridin-3-yl)methyl)-1H-pyrazol-4-yl)methyl)amino)-5′,8′-dihydro-6′H-spiro[cyclobutane-1,7′-pteridin]-6′-one] | 83
Cc1nc(NCc2cnn([C@@H](C)c3ccc(C(F)(F)F)nc3)c2)nc2c1NC(=O)[C@H](C)N2C [Compound 174, (7S)-4,7,8-Trimethyl-2-(((1-((S)-1-(6-(trifluoromethyl)pyridin-3-yl)ethyl)-1H-pyrazol-4-yl)methyl)amino)-7,8-dihydropteridin-6(5H)-one] | 22
